Residues, ends and D or L forms follow the SMILES beside them.
Tests used:
Assay type in all cases: cell-based, E. coli
YdgR Tyr71Phe = target: T1, YdgR Tyr71Phe (Escherichia coli, UniProt P77304, Y71F); test: β-Ala-Lys(AMCA) uptake and inhibition assay, YdgR Tyr71Phe
T1 construct: host or cells: E. coli BL21(DE3)pLysS
Protocol: (§1) Plasmids were transformed into E. coli BL21(DE3)pLysS cells by heat shock and transformants were selected on agar plates containing 100 µg/mL ampicillin and 34 µg/mL chloramphenicol. Single transformants were inoculated into 2 mL LB-media with antibiotics as above and grown overnight. The cultures were diluted 1∶50 in 5 mL LB-media with antibiotics as above, and at an OD600 of 0.5–0.8 protein expression was induced by the addition of 1 mM isopropyl β-D-1-thiogalactopyranoside (IPTG). The cells were harvested after three hours of induction by centrifugation and resuspended in uptake buffer (50 mM MES pH 6.5, 140 mM NaCl, 5.4 mM KCl, 1.8 mM CaCl2, 0.8 mM MgSO4, and 5 mM glucose).
(§2) Uptake assays were performed as previously described, [20]. In a final assay volume of 100 µL; 0.2 mM β-Ala-Lys-N-7-amino-4-methylcoumarin-3-acetic acid (β-Ala-Lys(AMCA), Biotrend) (10 µL) and various concentrations of ligands (purchased from Bachem or Sigma-Aldrich) or uptake buffer (50 µL) were incubated with bacterial cell suspension (OD600 = 10, 40 µL) at 37°C. […] Finally the cell pellet was resuspended in 100 µL uptake buffer, and the uptake was quantified by fluorescence measurements (excitation at 340 nm and emission at 460 nm) on a Safire 2 fluorimeter. Non-specific uptake was measured as described above on IPTG-induced E. coli BL21(DE3)pLysS cells harboring the empty pTTQ18 vector. […]

YdgR Tyr38Phe = target: T2, YdgR Tyr38Phe (Escherichia coli, UniProt P77304, Y38F); test: β-Ala-Lys(AMCA) uptake and inhibition assay, YdgR Tyr38Phe
T2 construct: host or cells: E. coli BL21(DE3)pLysS
T2 sequence (P77304 whole entry Y38F): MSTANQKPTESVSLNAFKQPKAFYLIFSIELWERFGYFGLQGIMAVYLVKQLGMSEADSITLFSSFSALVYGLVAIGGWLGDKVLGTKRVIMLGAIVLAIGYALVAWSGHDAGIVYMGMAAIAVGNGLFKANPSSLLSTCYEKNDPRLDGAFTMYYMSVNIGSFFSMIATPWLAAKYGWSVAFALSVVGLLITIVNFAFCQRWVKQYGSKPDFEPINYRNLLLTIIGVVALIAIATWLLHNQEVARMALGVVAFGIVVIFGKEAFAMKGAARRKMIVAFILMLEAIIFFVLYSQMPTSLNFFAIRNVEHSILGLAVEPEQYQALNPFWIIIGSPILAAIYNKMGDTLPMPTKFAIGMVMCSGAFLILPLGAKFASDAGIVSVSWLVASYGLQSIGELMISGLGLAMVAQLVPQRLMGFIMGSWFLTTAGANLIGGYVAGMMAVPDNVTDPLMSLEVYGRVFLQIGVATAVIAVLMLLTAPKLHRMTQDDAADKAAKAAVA
Protocol: as §1, §2

WT-YdgR = target: T3, WT-YdgR (Escherichia coli, UniProt P77304); test: cell-based; settings: IC50 (inhibition of β-Ala-Lys(AMCA) uptake)
T3 construct: expressed in transfected cells; host or cells: E. coli BL21(DE3)pLysS, pTTQ18-ydgR, IPTG-induced
T3 sequence (P77304 1-500): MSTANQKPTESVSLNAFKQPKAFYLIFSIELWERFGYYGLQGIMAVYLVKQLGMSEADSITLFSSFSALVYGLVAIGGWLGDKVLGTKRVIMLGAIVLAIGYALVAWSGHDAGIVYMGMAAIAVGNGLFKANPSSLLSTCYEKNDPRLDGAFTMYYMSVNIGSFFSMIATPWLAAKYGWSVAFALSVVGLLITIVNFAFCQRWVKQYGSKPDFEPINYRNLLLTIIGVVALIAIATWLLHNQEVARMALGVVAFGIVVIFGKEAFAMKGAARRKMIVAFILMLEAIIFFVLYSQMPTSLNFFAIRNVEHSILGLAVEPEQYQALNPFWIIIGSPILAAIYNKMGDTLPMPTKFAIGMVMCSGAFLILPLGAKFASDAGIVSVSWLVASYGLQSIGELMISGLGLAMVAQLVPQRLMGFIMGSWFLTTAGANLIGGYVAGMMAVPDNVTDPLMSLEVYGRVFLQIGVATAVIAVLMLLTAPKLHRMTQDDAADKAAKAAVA
Protocol: Plasmids were transformed into E. coli BL21(DE3)pLysS cells by heat shock and transformants were selected on agar plates containing 100 µg/mL ampicillin and 34 µg/mL chloramphenicol. Single transformants were inoculated into 2 mL LB-media with antibiotics as above and grown overnight. The cultures were diluted 1∶50 in 5 mL LB-media with antibiotics as above, and at an OD600 of 0.5–0.8 protein expression was induced by the addition of 1 mM isopropyl β-D-1-thiogalactopyranoside (IPTG). […]
Uptake assays were performed as previously described, [20]. In a final assay volume of 100 µL; 0.2 mM β-Ala-Lys-N-7-amino-4-methylcoumarin-3-acetic acid (β-Ala-Lys(AMCA), Biotrend) (10 µL) and various concentrations of ligands (purchased from Bachem or Sigma-Aldrich) or uptake buffer (50 µL) were incubated with bacterial cell suspension (OD600 = 10, 40 µL) at 37°C. After 5 min, the uptake was stopped by addition of 500 µL ice-cold uptake buffer followed by immediate centrifugation and washing twice in ice-cold uptake buffer. Finally the cell pellet was resuspended in 100 µL uptake buffer, and the uptake was quantified by fluorescence measurements (excitation at 340 nm and emission at 460 nm) on a Safire 2 fluorimeter. Non-specific uptake was measured as described above on IPTG-induced E. coli BL21(DE3)pLysS cells harboring the empty pTTQ18 vector. All uptake assay experiments were reproduced at least three times independently and data analyses were performed using GraphPad Prism ver. 5.

YdgR Tyr292Phe = target: T4, YdgR Tyr292Phe (Escherichia coli, UniProt P77304, Y292F); test: β-Ala-Lys(AMCA) uptake inhibition assay, YdgR Tyr292Phe; settings: 0.2 mM β-Ala-Lys(AMCA), 5 min incubation, pH 6.5; ±SEM, n≥3
T4 construct: host or cells: E. coli BL21(DE3)pLysS
T4 sequence (P77304 whole entry Y292F): as the sequence (P77304 whole entry Y38F) above, with F38Y, Y292F counted along it
Protocol: as §1, §2

YjdL Tyr25Leu = target: T5, YjdL Tyr25Leu (Escherichia coli, UniProt P39276, Y25L); test: β-Ala-Lys(AMCA) uptake assay, YjdL Tyr25Leu; settings: 0.2 mM, 5 min, pH 6.5 (Figure 3)
T5 construct: expressed in transfected cells; host or cells: E. coli BL21(DE3)pLysS, pTTQ18-yjdL mutant (QuikChange)
T5 sequence (P39276 whole entry Y25L): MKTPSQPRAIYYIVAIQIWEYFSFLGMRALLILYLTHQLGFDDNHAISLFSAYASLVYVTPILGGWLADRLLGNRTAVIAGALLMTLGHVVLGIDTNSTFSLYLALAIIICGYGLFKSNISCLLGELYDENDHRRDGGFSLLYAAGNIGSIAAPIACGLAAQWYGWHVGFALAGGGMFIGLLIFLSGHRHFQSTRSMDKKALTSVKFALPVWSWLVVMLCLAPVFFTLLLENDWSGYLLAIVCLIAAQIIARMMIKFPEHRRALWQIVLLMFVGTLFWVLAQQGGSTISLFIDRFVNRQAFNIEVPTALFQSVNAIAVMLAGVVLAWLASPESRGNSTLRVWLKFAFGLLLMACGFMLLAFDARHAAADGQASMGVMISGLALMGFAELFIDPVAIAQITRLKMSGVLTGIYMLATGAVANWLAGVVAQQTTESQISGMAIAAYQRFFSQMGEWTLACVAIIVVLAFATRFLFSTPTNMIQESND
Protocol: as §1, §2

YjdL Tyr113Asn = test: β-Ala-Lys(AMCA) uptake assay, YjdL Tyr113Asn; settings: 0.2 mM, 5 min, pH 6.5 (Figure 3)
Protocol: as §1, §2

YjdL Asp392Glu = target: T6, YjdL Asp392Glu (Escherichia coli, UniProt P39276, D392E); test: β-Ala-Lys(AMCA) uptake assay, YjdL Asp392Glu; settings: standard conditions: 0.2 mM, 5 min, pH 6.5 (Figure 3)
T6 construct: host or cells: E. coli BL21(DE3)pLysS
T6 sequence (P39276 whole entry D392E): as the sequence (P39276 whole entry Y25L) above, with L25Y, D392E counted along it
Protocol: as §1, §2

YjdL Lys117Arg = target: T7, YjdL Lys117Arg (Escherichia coli, UniProt P39276, K117R); test: β-Ala-Lys(AMCA) uptake assay, YjdL Lys117Arg; settings: 0.2 mM, 5 min, pH 6.5 (Figure 3)
T7 construct: host or cells: E. coli BL21(DE3)pLysS
T7 sequence (P39276 whole entry K117R): as the sequence (P39276 whole entry Y25L) above, with L25Y, K117R counted along it
Protocol: as §1, §2

YjdL Gly284Met = target: T8, YjdL Gly284Met (Escherichia coli, UniProt P39276, G284M); test: β-Ala-Lys(AMCA) uptake assay, YjdL Gly284Met; settings: 0.2 mM, 5 min, pH 6.5 (Figure 3)
T8 construct: host or cells: E. coli BL21(DE3)pLysS
T8 sequence (P39276 whole entry G284M): as the sequence (P39276 whole entry Y25L) above, with L25Y, G284M counted along it
Protocol: as §1, §2

YjdL Lys117Gln = target: T9, YjdL Lys117Gln (Escherichia coli, UniProt P39276, K117Q); test: β-Ala-Lys(AMCA) uptake assay, YjdL Lys117Gln; settings: 0.2 mM, 5 min, pH 6.5 (Figure 3)
T9 construct: host or cells: E. coli BL21(DE3)pLysS
T9 sequence (P39276 whole entry K117Q): as the sequence (P39276 whole entry Y25L) above, with L25Y, K117Q counted along it
Protocol: as §1, §2

YjdL Tyr21Arg = target: T10, YjdL Tyr21Arg (Escherichia coli, UniProt P39276, Y21R); test: β-Ala-Lys(AMCA) uptake assay, YjdL Tyr21Arg; settings: 0.2 mM, 5 min, pH 6.5 (Figure 3)
T10 construct: host or cells: E. coli BL21(DE3)pLysS
T10 sequence (P39276 whole entry Y21R): as the sequence (P39276 whole entry Y25L) above, with Y21R, L25Y counted along it
Protocol: as §1, §2

[1] = 0.2 mM, 5 min, pH 6.5 (Figure 4)

T1 sequence (P77304 whole entry Y71F): as the sequence (P77304 whole entry Y38F) above, with F38Y, Y71F counted along it

C[C@H](N)C(=O)N[C@@H](C)C(=O)O [Ala-Ala] (H-Ala-Ala-OH)
IC50 (YdgR Tyr71Phe; 0.2 mM β-Ala-Lys(AMCA), 5 min incubation, pH 6.5, ±SEM, n≥3): 370 ± 30 µM
IC50 (YdgR Tyr38Phe; 0.5 mM β-Ala-Lys(AMCA), 15 min incubation, pH 6.5, ±SEM, n≥3, read-out: IC50 (inhibition of β-Ala-Lys(AMCA) uptake), YdgR Tyr38Phe b): 920 ± 60 µM
IC50 (WT-YdgR; WT-YdgR a): 390 ± 40 µM
IC50 (WT-YdgR; WT-YdgR b): 1040 ± 60 µM
IC50 (YdgR Tyr292Phe): 150 ± 30 µM

β-Ala-Lys-N-7-amino-4-methylcoumarin-3-acetic acid [β-Ala-Lys(AMCA)]
β-Ala-Lys(AMCA) uptake level, YjdL Tyr25Leu (YjdL Tyr25Leu): 14%
increase of β-Ala-Lys(AMCA) uptake, YjdL Tyr113Asn (YjdL Tyr113Asn): ~2 fold
β-Ala-Lys(AMCA) uptake level, YdgR Tyr71Phe (YdgR Tyr71Phe; [1]): 27%
β-Ala-Lys(AMCA) uptake level, YjdL Asp392Glu (YjdL Asp392Glu): 26%
β-Ala-Lys(AMCA) uptake level, YdgR Tyr38Phe (YdgR Tyr38Phe; [1]): 10%
β-Ala-Lys(AMCA) uptake level, YjdL Lys117Arg (YjdL Lys117Arg): 17%
β-Ala-Lys(AMCA) uptake level, YjdL Gly284Met (YjdL Gly284Met): 20%
β-Ala-Lys(AMCA) uptake level, YjdL Lys117Gln (YjdL Lys117Gln): 9%
β-Ala-Lys(AMCA) uptake level, YjdL Tyr21Arg (YjdL Tyr21Arg): 11%

Reference: article PMC3478282, “Probing the Putative Active Site of YjdL: An Unusual Proton-Coupled Oligopeptide Transporter from E. coli” (PLoS ONE, 2012)
